Measured values reported in patent US7642269B2, “Pyrrolo[3,2-B]pyridine derivatives and processes for the preparation thereof” (Yuhan Corporation, priority 2005, dated 2010).
Where a name gives a salt, the structure may show the parent alone.

target: T1, H^+/K^+-ATPase (Sus scrofa, UniProt P19156); test: Inhibitory effects on proton pump (H^+/K^+-ATPase) activity, hog gastric vesicles; type: biochemical; conditions: K^+ stimulated H^+/K^+-ATPase activity, hog gastric vesicle, Pi measured at 620 nm
T1 construct: used as an enzyme source of the in vitro enzyme reaction assay of proton pump; from tissue; host or cells: hog gastric fundic mucosa (membrane vesicles, lyophilized)
T1 sequence (P19156 2-1034 limits assumed): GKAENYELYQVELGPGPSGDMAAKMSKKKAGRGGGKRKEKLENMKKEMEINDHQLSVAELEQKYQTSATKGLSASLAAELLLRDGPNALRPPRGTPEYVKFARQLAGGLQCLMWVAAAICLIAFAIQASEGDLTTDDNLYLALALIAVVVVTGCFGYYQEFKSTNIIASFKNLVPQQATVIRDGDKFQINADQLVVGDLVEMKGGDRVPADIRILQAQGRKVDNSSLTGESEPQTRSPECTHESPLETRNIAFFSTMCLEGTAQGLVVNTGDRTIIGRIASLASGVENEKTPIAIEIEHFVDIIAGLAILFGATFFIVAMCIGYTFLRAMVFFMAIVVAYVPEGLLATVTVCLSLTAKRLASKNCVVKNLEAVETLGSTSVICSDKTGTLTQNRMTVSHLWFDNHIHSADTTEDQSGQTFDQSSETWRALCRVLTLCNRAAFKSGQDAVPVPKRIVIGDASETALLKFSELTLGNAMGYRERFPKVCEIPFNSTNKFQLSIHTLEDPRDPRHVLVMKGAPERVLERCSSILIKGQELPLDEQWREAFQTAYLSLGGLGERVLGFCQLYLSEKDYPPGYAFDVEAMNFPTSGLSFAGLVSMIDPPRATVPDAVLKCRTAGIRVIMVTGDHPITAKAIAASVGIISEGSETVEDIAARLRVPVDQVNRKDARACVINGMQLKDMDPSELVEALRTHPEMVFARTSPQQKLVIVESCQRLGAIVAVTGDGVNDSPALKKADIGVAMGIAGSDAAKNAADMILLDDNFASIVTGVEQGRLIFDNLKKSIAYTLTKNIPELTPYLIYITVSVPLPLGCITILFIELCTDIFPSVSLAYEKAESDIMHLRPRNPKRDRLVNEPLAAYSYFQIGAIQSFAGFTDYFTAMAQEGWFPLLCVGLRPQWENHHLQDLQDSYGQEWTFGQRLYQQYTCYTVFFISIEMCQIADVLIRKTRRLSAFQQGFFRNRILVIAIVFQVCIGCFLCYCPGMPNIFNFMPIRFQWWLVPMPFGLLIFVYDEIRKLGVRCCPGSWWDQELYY
T1 sequence (P18434 whole entry partner): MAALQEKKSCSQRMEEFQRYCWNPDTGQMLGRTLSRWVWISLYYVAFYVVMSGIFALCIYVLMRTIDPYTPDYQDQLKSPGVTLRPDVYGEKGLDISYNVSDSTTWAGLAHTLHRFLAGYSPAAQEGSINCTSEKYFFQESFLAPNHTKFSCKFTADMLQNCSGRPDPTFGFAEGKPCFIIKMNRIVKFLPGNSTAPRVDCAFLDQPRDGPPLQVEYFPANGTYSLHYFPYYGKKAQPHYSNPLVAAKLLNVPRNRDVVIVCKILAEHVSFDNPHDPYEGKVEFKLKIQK
Protocol: Preparation of Gastric Proton Pump Vesicles
The hog fundic regions containing parietal and peptic cells were scraped with slide-glass. The collected cells were suspended in 10 ml of 0.25M sucrose buffer and homogenized using a tight-fitting Teflon-glass homogenizer. The homogenate was centrifuged for 35 min at 8,000 rpm and the pellet was discarded. The supernatant was further centrifuged for 75 min at 25,000 rpm. The resulting pellets were re-suspended in the sucrose buffer (10 ml), and then the suspension was laid onto discontinuous density gradients consisting of 0.25M sucrose buffer and isolation medium containing 9% Ficoll (w/w). After being centrifuged for 3 hours and 15 minutes at 100,000×g, the material at the interface of sucrose buffer and Ficoll solution was collected and then centrifuged for 40 minutes at 100,000×g. The resulting pellets were re-suspended in 1 ml of 5 mM Hepes/Tris buffer (pH 6.1). This material was lyophilized and stored at −70° C. and used as an enzyme source of the in vitro enzyme reaction assay of proton pump.
1-2. Measurement of Inhibitory Effects on Proton Pump (H+/K+-ATPase) activity
The inhibitory effects of the compounds of the present invention against proton pump activity were evaluated in 96-well plate. In this assay, the K^+ specific H^+/K^+-ATPase activity was calculated based on the difference between the activity of H^+/K^+-ATPase activity with K^+ and without K^+ ion. In 96-well plate, 1% dimethylsulfoxide (DMSO) in buffer was added to negative and positive control groups and the diluted compounds of the present invention in buffer were added to test group. All assays were performed in 100 μl reaction volume at room temperature, and the hog gastric vesicle was kept in ice before use. At the beginning of the reaction, 10 μl of reaction buffer containing 1% DMSO was added to the negative and positive control groups and to each concentration of compounds in the test group. Then lyophilized vesicle in 5 mM Pipes/Tris buffer (pH 6.1) was pre-incubated in the presence of various concentrations of test compounds. After a 5 minute incubation, negative and positive buffers were respectively added to the previous reaction mixture. As the substrate, ATP was added to the reaction buffer, and incubated for 30 minutes at 37° C. Enzymatic activity was stopped by the addition of colorimetric reagent (2× malachite green, 1× ammonium molybdate, 1× polyvinyl alcohol, 2× H2O) and the amount of mono phosphate (Pi) in the reaction was measured at 620 nm using the micro plate reader (Genios Pro, TECAN). The difference between the Pi production with K^+ and without K^+ is taken as K^+ stimulated H^+/K^+-ATPase activity.

Compared with `Cc1c(C)n(Cc2cccc(F)c2)c2c(OCc3ccc(F)cc3)ccnc12` [Example 40, 1-(3-fluorobenzyl)-7-(4-fluorobenzyloxy)-2,3-dimethyl-1H-pyrrolo[3,2-b]pyridine hydrochloride], `Cc1cccc(COc2ccnc3c(C)c(C)n(Cc4ccc(F)cc4)c23)c1` [Example 158, 1-(4-fluorobenzyl)-2,3-dimethyl-7-(3-methylbenzyloxy)-1H-pyrrolo[3,2-b]pyridine hydrochloride] is 1.7-fold higher in IC50: 0.19 µM for the first, 0.32 µM for the second.

`COc1cccc(Cn2c(C)c(C)c3nccc(OCc4ccc(C(F)(F)F)cc4)c32)c1` [Example 201, 1-(3-methoxybenzyl)-2,3-dimethyl-7-(4-trifluoromethylbenzyloxy)-1H-pyrrolo[3,2-b]pyridine hydrochloride] and `Cc1ccc(Cn2c(C)c(C)c3nccc(OCc4ccc(C(F)(F)F)cc4)c32)cc1` [Example 200, 2,3-dimethyl-1-(4-methylbenzyl)-7-(4-trifluoromethylbenzyloxy)-1H-pyrrolo[3,2-b]pyridine hydrochloride] are within 1.5-fold of each other in IC50: 0.68 µM for the first, 0.6 µM for the second.

First: COCCn1c(C)c(C)c2nccc(OCc3ccc(F)cc3)c21 [Example 125, 7-(4-fluorobenzyloxy)-1-(2-methoxyethyl)-2,3-dimethyl-1H-pyrrolo[3,2-b]pyridine p-toluenesulfonate]
Second: C=COCCn1c(C)c(C)c2nccc(OCc3ccc(F)cc3)c21 [Example 38, 7-(4-fluorobenzyloxy)-2,3-dimethyl-1-(2-vinyloxyethyl)-1H-pyrrolo[3,2-b]pyridine hydrochloride]
The IC50 of the first is 26-fold lower: 0.05 µM for the first, 1.31 µM for the second. The first is the more potent here.

Going from `Cc1c(C)n(CC(C)C)c2c(OCc3ccc(Br)cc3)ccnc12` [Example 228, 7-(4-bromobenzyloxy)-1-isobutyl-2,3-dimethyl-1H-pyrrolo[3,2-b]pyridine hydrochloride] to `C=CCn1c(C)c(C)c2nccc(OCc3ccc(Br)cc3)c21` [Example 220, 1-allyl-7-(4-bromobenzyloxy)-2,3-dimethyl-1H-pyrrolo[3,2-b]pyridine hydrochloride], the IC50 rises from 0.03 µM to 0.05 µM (1.7-fold).

Compared with `Cc1c(C)n(CC2CCC2)c2c(OCc3ccc(Br)cc3)ccnc12` [Example 227, 7-(4-bromobenzyloxy)-1-cyclobutylmethyl-2,3-dimethyl-1H-pyrrolo[3,2-b]pyridine hydrochloride], `CCn1c(C)c(C)c2nccc(OCc3ccc(Cl)cc3)c21` [Example 90, 7-(4-chlorobenzyloxy)-1-ethyl-2,3-dimethyl-1H-pyrrolo[3,2-b]pyridine hydrochloride] is 1.6-fold higher in IC50: 0.09 µM for the first, 0.14 µM for the second.

`CCn1c(C)c(C)c2nccc(OCc3ccc4c(c3)OCO4)c21` [Example 117, 7-(benzo[1,3]dioxol-5-ylmethoxy)-1-ethyl-2,3-dimethyl-1H-pyrrolo[3,2-b]pyridine hydrochloride] and `COCCn1c(C)c(C)c2nccc(OCc3ccc4c(c3)OCO4)c21` [Example 99, 7-(benzo[1,3]dioxol-5-ylmethoxy)-1-(2-methoxyethyl)-2,3-dimethyl-1H-pyrrolo[3,2-b]pyridine hydrochloride] are within 1.5-fold of each other in IC50: 0.72 µM for the first, 0.63 µM for the second.

Compared with `C=CCn1c(C)c(C)c2nccc(N3CCc4ccccc4C3)c21` [Example 7, 1-allyl-7-(1,2,3,4-tetrahydroisoquinolin-2-yl)-2,3-dimethyl-1H-pyrrolo[3,2-b]pyridine hydrochloride], `Cc1c(C)n(CCC2OCCO2)c2c(N3CCc4ccccc4C3)ccnc12` [Example 14, 1-[2-(1,3-dioxolan-2-yl)ethyl]-7-(1,2,3,4-tetrahydroisoquinolin-2-yl)-2,3-dimethyl-1H-pyrrolo[3,2-b]pyridine hydrochloride] is 2.4-fold higher in IC50: 0.22 µM for the first, 0.53 µM for the second. The first is the more potent here.

Going from `COCCn1c(C)c(C)c2nccc(OCc3ccc(F)cc3)c21` [Example 130, 7-(4-fluorobenzyloxy)-1-(2-methoxyethyl)-2,3-dimethyl-1H-pyrrolo[3,2-b]pyridine malonate] to `COCCn1c(C)c(C)c2nccc(OCc3cccc(C)c3)c21` [Example 157, 1-(2-methoxyethyl)-2,3-dimethyl-7-(3-methylbenzyloxy)-1H-pyrrolo[3,2-b]pyridine hydrochloride], the IC50 rises from 0.04 µM to 0.57 µM (14-fold). The first is the more potent here.

Going from `Cc1c(C)n(Cc2ccccc2)c2c(N3CCc4ccccc4C3)ccnc12` [Example 6, 1-benzyl-7-(1,2,3,4-tetrahydroisoquinolin-2-yl)-2,3-dimethyl-1H-pyrrolo[3,2-b]pyridine hydrochloride] to `Cc1c(C)n(Cc2ccccc2)c2c(OCc3ccc(Br)cc3)ccnc12` [Example 219, 1-benzyl-7-(4-bromobenzyloxy)-2,3-dimethyl-1H-pyrrolo[3,2-b]pyridine hydrochloride], the IC50 falls from 0.2 µM to 0.06 µM (3.3-fold).

Compared with `Cc1cccc(COc2ccnc3c(C)c(C)n(Cc4cccc(F)c4)c23)c1` [Example 146, 1-(3-fluorobenzyl)-2,3-dimethyl-7-(3-methylbenzyloxy)-1H-pyrrolo[3,2-b]pyridine hydrochloride], `CCn1c(C)c(C)c2nccc(OCc3cccc(C)c3)c21` [Example 145, 1-ethyl-2,3-dimethyl-7-(3-methylbenzyloxy)-1H-pyrrolo[3,2-b]pyridine hydrochloride] is 5.9-fold lower in IC50: 3.15 µM for the first, 0.53 µM for the second. The second is the more potent here.

`Cc1c(C)n(CC2CC2)c2c(OCc3cc(F)cc(F)c3)ccnc12` [Example 180, 1-cyclopropylmethyl-7-(3,5-difluorobenzyloxy)-2,3-dimethyl-1H-pyrrolo[3,2-b]pyridine hydrochloride] and `Cc1c(C)n(Cc2ccc(F)cc2)c2c(OCc3cc(F)cc(F)c3)ccnc12` [Example 184, 7-(3,5-difluorobenzyloxy)-1-(4-fluorobenzyl)-2,3-dimethyl-1H-pyrrolo[3,2-b]pyridine hydrochloride] are within 1.5-fold of each other in IC50: 0.83 µM for the first, 1.07 µM for the second.

First: COC(=O)Cn1c(C)c(C)c2nccc(OCc3ccc(Cl)cc3Cl)c21 [Example 138, 7-(2,4-dichlorobenzyloxy)-1-methoxycarbonylmethyl-2,3-dimethyl-1H-pyrrolo[3,2-b]pyridine hydrochloride]
Second: COC(=O)Cn1c(C)c(C)c2nccc(OCc3ccc(Cl)cc3)c21 [Example 83, [7-(4-chlorobenzyloxy)-2,3-dimethyl-pyrrolo[3,2-b]pyridin-1-yl]acetic acid methyl ester hydrochloride]
The IC50 of the first is 8.3-fold lower: 0.46 µM for the first, 3.82 µM for the second. The first is the more potent here.

First: Cc1ccc(C)c(Cn2c(C)c(C)c3nccc(OCc4ccc(Cl)cc4)c32)c1 [Example 82, 7-(4-chlorobenzyloxy)-1-(2,5-dimethylbenzyl)-2,3-dimethyl-1H-pyrrolo[3,2-b]pyridine hydrochloride]
Second: COCCn1c(C)c(C)c2nccc(OCc3ccc(F)cc3)c21 [Example 129, 7-(4-fluorobenzyloxy)-1-(2-methoxyethyl)-2,3-dimethyl-1H-pyrrolo[3,2-b]pyridine phosphate]
The IC50 of the first is 120-fold higher: 4.7 µM for the first, 0.04 µM for the second.

Compared with `COCCn1c(C)c(C)c2nccc(OCc3ccc(F)cc3)c21` [Example 122, 7-(4-fluorobenzyloxy)-1-(2-methoxyethyl)-2,3-dimethyl-1H-pyrrolo[3,2-b]pyridine], `Cc1ccc(Cn2c(C)c(C)c3nccc(NCc4ccc(F)cc4)c32)cc1` [Example 263, N-[1-(4-methylbenzyl)-2,3-dimethyl-1H-pyrrolo[3,2-b]pyridin-7-yl]-4-fluorobenzylamine hydrochloride] is 72-fold higher in IC50: 0.02 µM for the first, 1.45 µM for the second. The first is the more potent here.

`Cc1c(C)n(CC2OCCO2)c2c(OCc3ccc4c(c3)OCO4)ccnc12` [Example 100, 7-(benzo[1,3]dioxol-5-ylmethoxy)-1-([1,3]-dioxolan-2-ylmethyl)-2,3-dimethyl-1H-pyrrolo[3,2-b]pyridine hydrochloride] gave an IC50 of 2.82 µM.
